Data from BindingDB's records for patent US11981680 (Bristol Myers Squibb, 2024).

Molecular target: Protein-arginine deiminase type-4 (Homo sapiens, UniProt Q9UM07)
Assay: RFMS Human PAD4 Functional Assay
Experimental: Compounds were solubilized in 100% DMSO to achieve a10 mM compound concentration. Compound stock solutions were stored at RT. A series of dilutions were prepared in DMSO and mixed 8 times with 20 μL mixing volume. Final top concentration of compound in the assay is 50 μM. Final assay conditions were as follows:Reaction volume: 26 μlAssay buffer: 25 mM hepes, pH 7.5, 5 mM NaCl, 1 mM DTT, 0.2 mg/ml BSA, 0.01% CHAPS, 50 μM Calcium, and 5 μM TPENFinal concentrations: 5 nM hPAD4 enzyme, 250 μM BAEE, and 0.5% DMSOTotal incubation time: 30 mins compound and enzyme preincubation at 37° C., 90 min enzyme/substrate reaction, 30 min reaction with phenyl glyoxal at 37° C.Stop solution: 40 μl 5% TCA in ACN0.13 μL of compound solution was added to 13 μL of 10 nM PAD4 in assay buffer. After 30 min 13 μl of 500 μM of BAEE was added in 25 mM hepes, pH 7.5, 5 mM NaCl, 1 mM DTT, 0.2 mg/ml BSA, 0.01% CHAPS, 50 μM Calcium, 5 μM TPEN was added and the reaction incubated for 90 min at 37° C. The enzymatic reaction was quenched by addition of 15 μl of 6.1N TCA, 100% Final Concentration is 20%, 35 μl of 8.5 mM phenyl glyoxal (final concentration 4 mM) is then added and the reaction is incubated for 30 min at 37° C.After 30 minutes the plates are spun down to remove all precipitate. The enzyme reaction was quenched with an equal volume of methanol containing internal standard (modified citrulline). […]

Sequence of Protein-arginine deiminase type-4 (Q9UM07 whole entry): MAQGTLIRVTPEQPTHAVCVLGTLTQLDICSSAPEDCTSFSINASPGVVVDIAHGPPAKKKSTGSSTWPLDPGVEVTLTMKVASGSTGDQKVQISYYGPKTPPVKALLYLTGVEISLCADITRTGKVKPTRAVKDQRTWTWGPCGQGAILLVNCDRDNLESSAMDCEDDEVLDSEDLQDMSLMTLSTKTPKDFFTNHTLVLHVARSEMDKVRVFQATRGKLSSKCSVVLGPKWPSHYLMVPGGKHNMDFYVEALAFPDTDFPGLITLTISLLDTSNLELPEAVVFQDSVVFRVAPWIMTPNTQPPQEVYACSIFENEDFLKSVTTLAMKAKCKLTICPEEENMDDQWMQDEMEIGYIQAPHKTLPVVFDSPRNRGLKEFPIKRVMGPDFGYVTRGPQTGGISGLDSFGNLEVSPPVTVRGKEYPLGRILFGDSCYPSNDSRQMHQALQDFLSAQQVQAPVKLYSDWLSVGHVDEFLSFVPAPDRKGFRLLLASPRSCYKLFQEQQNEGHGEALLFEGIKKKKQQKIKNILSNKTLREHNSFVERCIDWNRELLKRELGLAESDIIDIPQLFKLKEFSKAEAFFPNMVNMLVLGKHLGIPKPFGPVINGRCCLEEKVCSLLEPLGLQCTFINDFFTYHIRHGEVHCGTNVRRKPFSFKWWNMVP

Q: For `COc1cc(C(=O)N2C[C@H]3CC[C@@H]2[C@@H]3N)cc2nc(-c3cc4scc(-c5cn[nH]c5)c4n3CC3CC3)n(C)c12` [US11981680, Example 39], which IC50 is on record?
A: 35 nM
